Measurements as given in article PMC5473940, “SAF-A Regulates Interphase Chromosome Structure through Oligomerization with Chromatin-Associated RNAs” (Cell, 2017).

Key:
Format in all cases: binding
[1] = molecular target: T1, SAF-A AAA+ domain (His-tagged AAA+ fragment) (Homo sapiens, UniProt Q00839, D580A, form not given); test: intrinsic fluorescence quenching (ex […] nm, em […] nm); conditions: pH 7.5, 37 °C, 10 mM MgCl2, 125 mM NaCl, 5 mM DTT; Walker B mutant
T1 construct: gene HNRNPU; AAA+ domain fragment, N-terminal 6xHis in pET32a, E. coli BL21(DE3); exact borders not in text (AAA domain modelled as aa 469-653)
T1 sequence (Q00839 507-691 D580A limits assumed): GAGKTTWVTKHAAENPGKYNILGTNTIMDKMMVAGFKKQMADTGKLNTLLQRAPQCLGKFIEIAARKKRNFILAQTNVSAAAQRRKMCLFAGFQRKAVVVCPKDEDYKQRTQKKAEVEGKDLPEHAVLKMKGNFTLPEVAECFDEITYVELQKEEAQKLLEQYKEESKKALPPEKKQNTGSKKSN

[2] = molecular target: T2, SAF-A AAA+ domain (His-tagged AAA+ fragment) (Homo sapiens, UniProt Q00839, K510A, form not given); test: as above; conditions: pH 7.5, 37 °C, 10 mM MgCl2, 125 mM NaCl, 5 mM DTT; Walker A mutant
T2 construct: gene HNRNPU; AAA+ domain fragment, N-terminal 6xHis in pET32a, E. coli BL21(DE3); exact borders not in text (AAA domain modelled as aa 469-653)
T2 sequence (Q00839 507-691 K510A limits assumed): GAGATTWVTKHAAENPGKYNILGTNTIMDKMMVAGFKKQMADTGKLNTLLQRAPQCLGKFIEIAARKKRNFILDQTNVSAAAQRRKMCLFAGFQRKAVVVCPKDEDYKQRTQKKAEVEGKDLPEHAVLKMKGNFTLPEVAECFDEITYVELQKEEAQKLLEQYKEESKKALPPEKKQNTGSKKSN

[3] = molecular target: T3, SAF-A AAA+ domain (His-tagged AAA+ fragment) (Homo sapiens, UniProt Q00839); test: as above
T3 construct: gene HNRNPU; AAA+ domain fragment, N-terminal 6xHis in pET32a, E. coli BL21(DE3); exact borders not in text (AAA domain modelled as aa 469-653)
T3 sequence (Q00839 488-672 limits assumed): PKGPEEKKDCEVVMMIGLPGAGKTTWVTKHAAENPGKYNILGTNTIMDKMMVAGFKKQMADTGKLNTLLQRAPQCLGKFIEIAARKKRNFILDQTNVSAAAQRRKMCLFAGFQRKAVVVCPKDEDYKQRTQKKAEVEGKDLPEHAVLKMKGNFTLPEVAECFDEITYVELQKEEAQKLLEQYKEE

[4] = molecular target: T4, FLAG-tagged full-length SAF-A (Homo sapiens, UniProt Q00839); test: stabilisation of immuno-purified oligomer, native PAGE western blot; conditions: 1 mM nucleotide, 37 °C, 10 mM DTT to reverse cross-links
T4 construct: gene HNRNPU
T4 sequence (Q00839 2-806 isoform Q00839-2): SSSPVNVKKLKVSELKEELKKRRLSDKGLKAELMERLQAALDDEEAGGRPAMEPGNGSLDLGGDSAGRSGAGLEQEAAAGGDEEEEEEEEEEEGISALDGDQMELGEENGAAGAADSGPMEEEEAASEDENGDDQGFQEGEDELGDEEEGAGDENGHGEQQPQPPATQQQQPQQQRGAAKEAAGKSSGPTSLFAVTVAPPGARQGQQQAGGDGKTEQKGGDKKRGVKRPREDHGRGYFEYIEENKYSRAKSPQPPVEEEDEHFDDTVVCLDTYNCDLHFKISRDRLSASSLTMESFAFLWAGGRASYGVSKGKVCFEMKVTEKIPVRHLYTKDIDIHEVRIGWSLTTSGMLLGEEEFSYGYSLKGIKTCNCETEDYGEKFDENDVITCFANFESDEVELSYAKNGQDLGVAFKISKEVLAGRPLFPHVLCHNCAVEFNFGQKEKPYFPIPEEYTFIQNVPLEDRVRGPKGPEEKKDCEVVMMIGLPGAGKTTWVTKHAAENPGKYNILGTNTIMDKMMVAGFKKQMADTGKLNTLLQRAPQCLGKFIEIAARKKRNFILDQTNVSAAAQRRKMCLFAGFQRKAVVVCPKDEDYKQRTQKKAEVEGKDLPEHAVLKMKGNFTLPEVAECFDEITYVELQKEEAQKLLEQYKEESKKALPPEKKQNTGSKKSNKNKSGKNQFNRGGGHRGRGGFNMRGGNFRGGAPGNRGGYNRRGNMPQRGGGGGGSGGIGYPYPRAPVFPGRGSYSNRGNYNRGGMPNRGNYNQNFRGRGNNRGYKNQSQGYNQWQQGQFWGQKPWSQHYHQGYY

- Kd [1]: 29 µM
- Kd [3]: 38 µM
- stabilisation of immuno-purified oligomer, native PAGE western blot [4]: ATP or ATPγS stabilized the oligomers
Compound: Nc1ncnc2c1ncn2[C@@H]1O[C@H](COP(=O)(O)OP(=O)(O)OP(=O)(O)O)[C@@H](O)[C@H]1O [ATP]
- ATP binding abrogated (no binding) [2]: Mutation of the Walker A motif abrogated ATP binding
